# Experimental data reported in US4657931A, “N-(acyldipeptidyl)-aminoglycols” (G. D. Searle & Co., priority 1985, dated 1987).
# Where a chain is given by its changes, count along the chain named. Square brackets hold non-standard residues; d marks the D form. Peptide text beside a SMILES is read from it. * marks the point of attachment. Sta = CC(C)C[C@H](N)[C@@H](O)CC(=O)O; Isovaleryl = CC(C)CC(=O)*
# How the values were obtained:
# monkey renin = target: T1, monkey renin (Macaca mulatta, UniProt Q6DLW5); experiment: Monkey Renin Test: plasma renin activity of Lasix treated Rhesus monkeys; assay type: in vivo; parameters: Plasma renin activity (PRA), Pre-Lasix -24 hr / Plasma renin activity (PRA), Post-Lasix 0 hr / Plasma renin activity (PRA), Post-Lasix 2 min / Plasma renin activity (PRA), Post-Lasix 5 min / Plasma renin activity (PRA), Post-Lasix 15 min: unit not given here; details: for PRA after 15 min, in words / PRA at 2 min after treatment, in words: 10 mg/kg iv, lasix treated Rhesus monkeys; for Plasma renin activity (PRA), Post-Lasix 2 min: 2 min after 10 mg/kg iv; for Plasma renin activity (PRA), Post-Lasix 2 min / Plasma renin activity (PRA), Post-Lasix 5 min / Plasma renin activity (PRA), Post-Lasix 15 min / Plasma renin activity (PRA), Pre-Lasix -24 hr / Plasma renin activity (PRA), Post-Lasix 0 hr: mean ± S.E., n = 6; for Plasma renin activity (PRA), Post-Lasix 5 min: 5 min after 10 mg/kg iv; for Plasma renin activity (PRA), Post-Lasix 15 min: 15 min after 10 mg/kg iv; for Plasma renin activity (PRA), Pre-Lasix -24 hr: baseline before lasix and before drug, group later given 10 mg/kg iv; for Plasma renin activity (PRA), Post-Lasix 0 hr: immediately before drug treatment (10 mg/kg iv)
# T1 construct: from tissue; host or cells: plasma of furosemide-treated Rhesus monkeys
# T1 sequence (Q6DLW5 67-406): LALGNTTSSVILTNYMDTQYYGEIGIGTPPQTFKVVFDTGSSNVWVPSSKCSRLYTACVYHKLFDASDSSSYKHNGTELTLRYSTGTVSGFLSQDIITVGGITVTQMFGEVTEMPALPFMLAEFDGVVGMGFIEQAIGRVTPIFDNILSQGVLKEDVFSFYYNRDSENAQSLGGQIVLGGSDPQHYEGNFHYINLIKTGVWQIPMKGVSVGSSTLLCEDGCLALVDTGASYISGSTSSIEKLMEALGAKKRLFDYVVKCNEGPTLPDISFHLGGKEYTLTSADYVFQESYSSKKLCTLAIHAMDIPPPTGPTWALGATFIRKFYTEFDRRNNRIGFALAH
# Experimental: Rhesus monkeys (6/group) weighing (6.3-9.9 kg) were treated with lasix (furosemide) at 2 mg/kg, both in the A.M. and P.M. on day 1. […] Plasma samples (K-EDTA) were taken before the initial lasix, immediately before the drug treatment and at 2, 5, 15 min after the treatment. Plasma renin activity (PRA) was determined by the method of Burton et al., Biochemistry 14, 3892, 1975.
# hog renin = details: after the injection of hog renin into nephrectomized rats; cited from earlier work
# human renin = target: T2, human renin (Homo sapiens, UniProt P00797); experiment: Human Renin Test (angiotensin I by radioimmunoassay); assay type: biochemical
# T2 sequence (P00797 67-406): T1 sequence (Q6DLW5 67-406) with A2T, L148I, A169S, P204Q, H340R
# Experimental: The enzyme preparation was the international reference standard for human renin while human blood plasma was the angiotensinogen substrate source. The enzyme inhibition assay involved a two-hour incurbation at 37° C. of the following final concentrations of reagents (total volume of 0.25 ml): 0.1 mG units/ml human renin, 0.05 ml human plasma, 6 mM Na2 EDTA, 2.4 mM PMSF, 1.5 mM 8-hydroxyquinoline, 0.4 mg/ml BSA, 0.024 mg/ml neomycin sulfate in a 100 mM Tris Acetate buffer, pH 7.5. The reaction was terminated by boiling for 10 min and the angiotensin I produced was determined by radioimmunoassay.
# This assay is a modification of the one by Burton et al. (Biochemistry 14, 3892, 1975).
SMILES,"PRA after 15 min, in words (monkey renin)","PRA at 2 min after treatment, in words (monkey renin)","Plasma renin activity (PRA), Post-Lasix 2 min (monkey renin)","Plasma renin activity (PRA), Post-Lasix 5 min (monkey renin)","Plasma renin activity (PRA), Post-Lasix 15 min (monkey renin)","Plasma renin activity (PRA), Pre-Lasix -24 hr (monkey renin)","Plasma renin activity (PRA), Post-Lasix 0 hr (monkey renin)",other results
"CC(C)CC(=O)N[C@H](C(=O)N[C@H](C(=O)N[C@@H](CC(C)C)[C@@H](O)CC(=O)N[C@@H](C)C(=O)N[C@@H](CC(C)C)[C@@H](O)CC(=O)O)C(C)C)C(C)C [Pepstatin, pepstatin, reference compound] (Isovaleryl-VV[Sta]A[Sta]-OH)",returned to post-lasix levels,returned to pre-lasix values,13.0 ± 0.2,22.7 ± 9.2,44.7 ± 5.4,13.9 ± 2.5,53.1 ± 6.1,Blood pressure in vivo (hog renin): reduce blood pressure
"CC(C)C[C@H](NC(=O)[C@H](Cc1ccccc1)NC(=O)OC(C)(C)C)C(=O)N[C@@H](Cc1ccccc1)[C@@H](O)CO [Compound 4, N-[(1,1-dimethylethoxy)carbonyl]-L-phenylalanyl-N-[2R, 3-dihydroxy-1S-(phenylmethyl)propyl]-L-leucinamide]",still lowered,returned to pre-lasix values,8.4 ± 2.6,15.1 ± 3.5,23.5 ± 4.6,12.2 ± 2.9,47.2 ± 7.9,"Activity, effect on human renin activity (human renin; Dose 8.4 × 10^-6 (unit not given)): Active"
"CC(C)C[C@H](NC(=O)[C@H](Cc1cccc2ccccc12)NC(=O)OC(C)(C)C)C(=O)N[C@@H](Cc1ccccc1)[C@@H](O)CO [Compound 8, N-[(1,1-dimethylethoxy)carbonyl]-3-(1-naphthalenyl)-L-alanyl-N-[2R,3-dihydroxy-1S-(phenylmethyl)propyl]-L-leucinamide]",–,–,–,–,–,–,–,"Activity, effect on human renin activity (human renin; Dose 1.5 × 10^-5 (unit not given)): Active"
"CC(C)(C)OC(=O)N[C@@H](Cc1ccccc1)C(=O)N[C@@H](Cc1c[nH]cn1)C(=O)N[C@@H](Cc1ccccc1)[C@@H](O)CO [Compound 7, N-[(1,1-dimethylethoxy)carbonyl]-L-phenylalanyl-N-[2R,3-dihydroxy-1S-(phenylmethyl)propyl]-L-histidinamide]",–,–,–,–,–,–,–,"Activity, effect on human renin activity (human renin; Dose 2.6 × 10^-6 (unit not given)): Active"
"CC(C)C[C@H](NC(=O)[C@H](Cc1ccccc1)NC(=O)CC(C)(C)C)C(=O)N[C@@H](Cc1ccccc1)[C@@H](O)CO [Compound 11, N-(3,3-dimethyl-1-oxobutyl)-L-phenylalanyl-N-[2R,3-dihydroxy-1S-(phenylmethyl)propyl]-L-leucinamide]",–,–,–,–,–,–,–,"Activity, effect on human renin activity (human renin; Dose 4 × 10^-6 (unit not given)): Active"
